Experimental data reported in patent publication US10947296B2, “Fusion protein Slit2D2(C386S)-HSA and use thereof in treatment of fibrotic diseases” (SUZHOU THINKING POWER BIOTECHNOLOGY CO., LTD., priority 2016, dated 2021).

B1: Slit2N: Protein having a molecular weight of about 120 kDa at the N-terminus of the Slit2 protein (protein)
chain: QCSCSGSTVDCHGLALRSVPRNIPRNTERLDLNGNNITRITKTDFAGLRHLRVLQLMENKISTIERGAFQDLKELERLRLNRNHLQLFPELLFLGTAKLYRLDLSENQIQAIPRKAFRGAVDIKNLQLDYNQISCIEDGAFRALRDLEVLTLNNNNITRLSVASFNHMPKLRTFRLHSNNLYCDCHLAWLSDWLRQRPRVGLYTQCMGPSHLRGHNVAEVQKREFVCSGHQSFMAPSCSVLHCPAACTCSNNIVDCRGKGLTEIPTNLPETITEIRLEQNTIKVIPPGAFSPYKKLRRIDLSNNQISELAPDAFQGLRSLNSLVLYGNKITELPKSLFEGLFSLQLLLLNANKINCLRVDAFQDLHNLNLLSLYDNKLQTIAKGTFSPLRAIQTMHLAQNPFICDCHLKWLADYLHTNPIETSGARCTSPRRLANKRIGQIKSKKFRCSAKEQYFIPGTEDYRSKLSGDCFADLACPEKCRCEGTTVDCSNQKLNKIPEHIPQYTAELRLNNNEFTVLEATGIFKKLPQLRKINFSNNKITDIEEGAFEGASGVNEILLTSNRLENVQHKMFKGLESLKTLMLRSNRITCVGNDSFIGLSSVRLLSLYDNQITTVAPGAFDTLHSLSTLNLLANPFNCNCYLAWLGEWLRKKRIVTGNPRCQKPYFLKEIPIQDVAIQDFTCDDGNDDNSCSPLSRCPTECTCLDTVVRCSNKGLKVLPKGIPRDVTELYLDGNQFTLVPKELSNYKHLTLIDLSNNRISTLSNQSFSNMTQLLTLILSYNRLRCIPPRTFDGLKSLRLLSLHGNDISVVPEGAFNDLSALSHLAIGANPLYCDCNMQWLSDWVKSEYKEPGIARCAGPGEMADKLLLTTPSKKFTCQGPVDVNILAKCNPCLSNPCKNDGTCNSDPVDFYRCTCPYGFKGQDCDVPIHACISNPCKHGGTCHLKEGEEDGFWCICADGFEGENCEVNVDDCEDNDCENNSTCVDGINNYTCLCPPEYTGELCEEKLDFCAQDLNPCQHDSKCILTPKGFKCDCTPGYVGEHCDIDFDDCQDNKCKNGAHCTDAVNGYTCICPEGYSGLFCEFSPPMVLPR

Legend:
pulmonary fibrosis model = assay: Efficacy on bleomycin-induced pulmonary fibrosis model; type: in vivo; set-up: body weight of the animals (Mean ± SEM) / Weight of the left lung (Mean ± SEM) / Volume of the left lung (Mean ± SEM): unit not given here; conditions: for body weight of the animals (Mean ± SEM): PFD 50mpk BID PO
Method: Animals were anesthetized by inhaling isoflurane. After confirmation of anesthesia, the animals were sterilized, then the neck skin was cut, the muscles were bluntly separated to expose the trachea, and bleomycin (dosage: 3 mg/kg, volume: 1.0 mL/kg) was directly injected between the tracheal rings. After the operation, the animals were placed in a 37° C. electric blanket to keep warm until the animals were completely awakened. After confirming that they were able to eat and drink freely, the animals were returned to the cage for normal feeding.
In this experiment, there were four groups, i.e., model group (experimental group-1, […]), PFD group (experimental group-2, n=6), Slit2D2(C386S)-HSA-1 mg/kg (experimental group-3, n=6), and Slit2D2(C386S)-HSA-5 mg/kg (experimental group-4, n=6).
In this experiment, the positive control drug (PFD) was given to rats by gavage twice a day, which was started on the day of modeling, and administered continuously for 14 days. The test compound (Slit2D2(C386S)-HSA) was given intravenously once every other day, which was started on the day of modeling, and a total of seven doses were administered (as shown in table 6).
Physiological observation of the experimental animals: changes in body weight of the animals were measured (body weight was measured once a day before administration); and the death rate of animals during the test period was monitored.
Animals were euthanized 24 hours after the last administration on the 14th day of modeling. After confirming the death of the animals, the left lung was fixed by intrapulmonary infusion of formalin, and the volume and weight of the left lung after perfusion were measured for relevant examination of the pulmonary pathology.
General pathological examination: After the perfusion with an equal amount of formalin in the left lung, the wet weight of left lung after perfusion was weighed/recorded with a micro-balance; and the volume of left lung after perfusion was measured and recorded using a micro-measuring cup.
Pathological examination of lung tissue: The whole lung was dehydrated. Lung paraffin sections were made with paraffin blocks. […] HE staining and Masson Trichrome staining were performed according to pathological staining SOP, and whole section scanning was performed using a Digital Pathscope slice scanner. Pathological analysis and scoring of changes in damage and inflammation of terminal bronchioles and accompanying small pulmonary artery at the periphery of the lesions (as shown in Tables 7 and 8 and FIG. 7) were performed using the HE-stained sections. Lesion area calculation, lesion pathology analysis and scoring were performed with the Masson Trichrome-stained sections (as shown in Table 9 and FIG. 8).
The mean±sd or mean±sem was calculated using the graphpad prism software, and the significant difference test was performed using t-test, one-way ANOVA and two-way ANOVA test. A significant difference between the two groups was considered at p<0.05.

Robo1 protein = target: T1, Robo1 protein (Homo sapiens, UniProt Q9Y6N7); assay: Affinity of the fusion protein to receptor Robo1 determined by SPR; type: binding; conditions: Robo1 bound to CM5 chip
T1 construct: purchased ORIGEN TP327713
T1 sequence (Q9Y6N7 26-1651): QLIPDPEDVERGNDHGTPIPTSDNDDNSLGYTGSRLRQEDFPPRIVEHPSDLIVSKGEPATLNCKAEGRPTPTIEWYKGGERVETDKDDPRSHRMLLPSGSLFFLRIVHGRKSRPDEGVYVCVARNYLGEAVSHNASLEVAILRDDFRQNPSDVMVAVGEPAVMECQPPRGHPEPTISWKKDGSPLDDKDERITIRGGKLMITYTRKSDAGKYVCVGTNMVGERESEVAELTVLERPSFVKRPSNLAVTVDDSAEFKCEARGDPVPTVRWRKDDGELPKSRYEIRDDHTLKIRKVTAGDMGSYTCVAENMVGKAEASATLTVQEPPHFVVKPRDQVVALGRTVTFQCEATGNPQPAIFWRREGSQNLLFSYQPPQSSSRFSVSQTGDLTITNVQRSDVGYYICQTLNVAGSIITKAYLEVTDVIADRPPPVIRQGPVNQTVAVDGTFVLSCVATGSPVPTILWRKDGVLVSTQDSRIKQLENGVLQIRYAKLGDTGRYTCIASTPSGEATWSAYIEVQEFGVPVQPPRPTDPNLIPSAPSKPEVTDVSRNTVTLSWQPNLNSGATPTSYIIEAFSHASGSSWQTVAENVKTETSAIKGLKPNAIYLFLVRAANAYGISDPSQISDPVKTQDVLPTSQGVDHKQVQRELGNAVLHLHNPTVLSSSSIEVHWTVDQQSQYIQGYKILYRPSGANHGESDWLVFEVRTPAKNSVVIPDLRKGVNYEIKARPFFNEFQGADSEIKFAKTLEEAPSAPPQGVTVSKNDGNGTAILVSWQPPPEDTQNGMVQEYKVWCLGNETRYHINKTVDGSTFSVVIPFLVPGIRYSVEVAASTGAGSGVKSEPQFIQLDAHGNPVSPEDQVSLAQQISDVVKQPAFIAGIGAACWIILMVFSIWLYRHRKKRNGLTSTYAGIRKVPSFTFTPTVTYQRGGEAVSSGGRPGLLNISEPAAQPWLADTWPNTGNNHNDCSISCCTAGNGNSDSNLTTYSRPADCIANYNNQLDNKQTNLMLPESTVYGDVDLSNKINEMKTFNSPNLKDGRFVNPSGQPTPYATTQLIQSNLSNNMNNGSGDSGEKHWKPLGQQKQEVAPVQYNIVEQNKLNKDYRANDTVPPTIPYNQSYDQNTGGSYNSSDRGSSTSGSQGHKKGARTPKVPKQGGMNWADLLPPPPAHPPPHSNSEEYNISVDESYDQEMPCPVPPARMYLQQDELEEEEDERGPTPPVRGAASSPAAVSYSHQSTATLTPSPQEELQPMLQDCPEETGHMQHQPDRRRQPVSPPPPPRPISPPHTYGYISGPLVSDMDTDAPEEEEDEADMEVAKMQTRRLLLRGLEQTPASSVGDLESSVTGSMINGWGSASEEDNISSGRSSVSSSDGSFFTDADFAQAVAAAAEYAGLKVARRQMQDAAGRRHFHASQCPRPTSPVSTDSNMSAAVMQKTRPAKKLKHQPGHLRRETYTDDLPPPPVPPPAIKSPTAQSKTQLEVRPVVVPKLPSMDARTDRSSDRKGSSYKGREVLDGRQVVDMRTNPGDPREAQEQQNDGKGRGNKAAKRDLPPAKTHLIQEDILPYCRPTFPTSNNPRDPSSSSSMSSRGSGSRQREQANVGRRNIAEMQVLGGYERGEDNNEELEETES
Method: The affinity constant between the protein and Robo1 protein was detected by SPR (Surface Plasmon resonance BIAcore 200) method. The Robo1 protein (ORIGEN, Art. No.: TP327713) was bound to a CM5 chip, and the interaction between the fusion protein Slit2D2(C386S)-HSA (prepared in Example 1), Slit2D2-HSA (as disclosed in Patent Application PCT/CN2015/092079), and the receptor protein Robo1 were analyzed. Kinetic measurements were performed according to the method referred by Canziani et al. (2004, Anal. Biochem. 325: 301-307). Furthermore, the affinity of the Slit2N protein (Slit2N is a protein having a molecular weight of about 120 kDa at the N-terminus of the Slit2 protein) to Robo1 protein was also determined by the same method.

Molecule	body weight of the animals (Mean ± SEM) (pulmonary fibrosis model; Day 1)	body weight of the animals (Mean ± SEM) (pulmonary fibrosis model; Day 3)	body weight of the animals (Mean ± SEM) (pulmonary fibrosis model; Day 5)	body weight of the animals (Mean ± SEM) (pulmonary fibrosis model; Day 7)	body weight of the animals (Mean ± SEM) (pulmonary fibrosis model; Day 9)	body weight of the animals (Mean ± SEM) (pulmonary fibrosis model; Day 11)	body weight of the animals (Mean ± SEM) (pulmonary fibrosis model; Day 13)	inhibition on the progression of pulmonary fibrosis (pulmonary fibrosis model; continuous administration for 14 days, 50 mg/kg PO BID)	Ka (Robo1 protein) [M⁻¹ s⁻¹]
Cc1ccc(=O)n(-c2ccccc2)c1 [PFD, Pirfenidone, reference compound]	279.4 ± 2.3	261.8 ± 3.9	265.0 ± 6.4	282.9 ± 7.4	298.4 ± 8.0	312.6 ± 8.8	321.7 ± 8.3	significant inhibition	–
B1	–	–	–	–	–	–	–	–	743600
